In brackets after ≈: the same amount, converted by molar mass.
Experiments:
[1] = test system: human Burkitt's lymphoma cell line (Raji, ATCC No. CRL-86); experiment: Proliferation inhibition of human Burkitt's lymphoma cell line Raji (Cell Counting Kit-8); format: cell-based; conditions: Raji cells, 72 hours culture, Cell Counting Kit-8, absorbance 450 nm; for IC50: Homo sapiens, read-out: IC50 (compound concentration with a proliferation-inhibition rate of 50%), Raji
Experimental: (§1) Human BuRkitt's lymphoma cell line (DG-75, ATCC No. CRL-2675) or human Burkitt's lymphoma cell line (Raji, ATCC No. CRL-86) was suspended in an RPMI-1640 medium (SIGMA) (hereinafter called culture solution) containing 10% calf serum (Moregate) and 10% fetal bovine serum (Hyclone) so as to set the cell number at 1×10^5/mL. After 50 μL of the cell suspension was added to a 96-well microplate, 49 μL of the above culture solution was added thereto to set the whole volume at 99 μL. Compounds represented by Formulae (6) to (11) that solved in DMSO, 5-FU (Wako) or doxorubicin (Wako) (all 0.0001 to 10 μg/mL) were each added to one well by 1 μL, and cultured with a CO2 concentration of 5% at 37° C. for 72 hours. After culturing, 10 μL of Wako cell Counting Kit-8 (Wako) was added to each well and subjected to color reaction in a CO2 incubator for 3 hours. Proliferation-inhibition rate was calculated from absorbance values measured with a microplate reader at 450 nm (reference wavelength: 620 nm) using the following expression to determine a compound concentration in a culture solution with a proliferation-inhibition rate of 50% as IC50 value.

[2] = test system: Meth A fibrosarcoma cells; experiment: Anticancer activity in mice with transplanted Meth A fibrosarcoma cells (tumor weight); format: in vivo, Balb/c mouse; conditions: for Proliferation-inhihition rate (%): 1/3 of the whole volume at 7th, 9th and 11th days, tumor weight at 21st day, female Balb/c mouse
Experimental: A compound represented by Formula (8) (50 to 500 μg/kg) that solved in ethanol or 5-FU (10 mg/kg) was administered to an 8-week old female Balb/c mouse (Japan SLC) having approx. 1×10^5 of Meth A fibrosarcoma cells (Kitasato Institute) intraperitoneally transplanted therein by ⅓ of the whole volume at 7th, 9th and 11th days intravenously (but 5-FU administered intraperitoneally) to measure tumor weight at 21st day. Using a control mouse to which normal saline solution was administered in lieu of a test compound, anticancer activity on each compound was expressed in number according to a formula of proliferation-inhibition rate (%)=(1−(sample/blank))×100.

[3] = test system: Human BuRkitt's lymphoma cell line (DG-75, ATCC No. CRL-2675); experiment: Proliferation inhibition of human Burkitt's lymphoma cell line DG-75 (Cell Counting Kit-8); format: cell-based; conditions: DG-75 cells, 72 hours culture, Cell Counting Kit-8, absorbance 450 nm; for IC50: Homo sapiens, read-out: IC50 (compound concentration with a proliferation-inhibition rate of 50%), DG-75
Experimental: as §1

[4] = Solubility in solvents (physicochemical description); conditions: qualitative, organic solvents and water

Structure (SMILES) | Solubility [4] | IC50 [3] [µg/mL] | IC50 [1] [µg/mL] | also measured
O=c1[nH]cc(F)c(=O)[nH]1 [Compound 5-FU, 5-FU, reference compound] |  |  |  | IC50 (compound concentration with a proliferation-inhibition rate of 50%), Raji [1]: 3.0 µg/mL; Proliferation-inhihition rate (%) ([2]; 10000 μg/kg (10 mg/kg), intraperitoneally): 60.2%; IC50 (compound concentration with a proliferation-inhibition rate of 50%), DG-75 [3]: 0.9 µg/mL
C=C1/C=C(\C)C(C)CC(O)CC(=O)C(O)C(O)C(C)CC(C)OC(=O)C(C)C(O)CCCCC2OC2CC(C)C1 (stereo not drawn) [Compound 6] | soluble in alcohol, chloroform, ethyl acetate and acetone, insoluble in hexane and water | 0.02 (≈ 0.0353 µM) |  | 
C=C1/C=C(\C)C(C)CC(O)CC(=O)C(O)C(O)C(C)CC(C)OC(=O)/C(C)=C/CCCCC2OC2CC(C)C1 (stereo not drawn) [Compound 7] | soluble in alcohol, chloroform, ethyl acetate and acetone, insoluble in hexane and water | 0.4 (≈ 0.729 µM) |  | 
C=C1CC2C/C=C/C(O)C(C)/C(C)=C\C(=O)OC(CC(C)C(C)O)C(C)C/C=C/C(C)(O)C(O)(C1)O2 (stereo not drawn) [Compound 8] | soluble in chloroform, acetone, ethyl acetate, ethanol and methanol, insoluble in water and hexane | 0.002 (≈ 0.00395 µM) | 0.003 (≈ 0.00592 µM) | Proliferation-inhihition rate (%) ([2]; 50 μg/kg, intravenously): 5.3%; Proliferation-inhihition rate (%) ([2]; 200 μg/kg, intravenously): 62.2%; Proliferation-inhihition rate (%) ([2]; 500 μg/kg, intravenously): 54.3%; Proliferation-inhibition rate (anticancer activity) compared with 5-FU ([2]; Meth A fibrosarcoma mouse model, Formula (8) administered with a lower concentration than 5-FU): almost the same proliferation-inhibition rate (anticancer activity) as 5-FU
C/C1=C/C(=O)C(C)(O)/C=C/CC(C)C(CC(C)C(C)O)OC(=O)/C=C(/C)C(C)C(O)/C=C/CC(O)C1 (stereo not drawn) [Compound 9] | soluble in chloroform, acetone, ethyl acetate and ethanol, insoluble in water and hexane | 0.9 (≈ 1.78 µM) |  | 
C=C(C(O)CC)C(C)C(O)C1CCC/C(C)=C/C2OC(CC2C)C2OC(CC/C=C/CCC(C)C(=O)O1)CC2O (stereo not drawn) [Compound 10] | soluble in chloroform, acetone, ethyl acetate and ethanol, insoluble in water and hexane | 0.006 (≈ 0.0107 µM) | 0.01 (≈ 0.0178 µM) | 
C/C=C/C/C=C/C(C)CC(O)C1CC2OC2/C=C/C(O)C(O)/C=C/CC(C)CC(=O)O1 (stereo not drawn) [Compound 11] | soluble in chloroform, acetone, ethyl acetate and ethanol, insoluble in water and hexane | 0.08 (≈ 0.184 µM) | 0.05 (≈ 0.115 µM) | 
COc1cccc2c1C(=O)c1c(O)c3c(c(O)c1C2=O)C[C@@](O)(C(=O)CO)C[C@@H]3O[C@H]1C[C@H](N)[C@H](O)[C@H](C)O1 [Doxorubicin, doxorubicin, reference compound] |  | 0.04 (≈ 0.0736 µM) | 0.02 (≈ 0.0368 µM) | 

— US8071793B2, “Macrolide compound” (National University Corporation Hokkaido University, priority 2006, dated 2011)
